Laboratory results taken from PMC10828244, “Covalently Binding Adenosine A3 Receptor Agonist ICBM Irreversibly Reduces Voltage-Gated Ca^2+ Currents in Dorsal Root Ganglion Neurons” (Purinergic Signalling, 2023).

Assays:
[1] = target: T1, adenosine A3 receptor (A3AR) (Rattus norvegicus, UniProt P28647); assay: whole-cell patch clamp of Ca2+ currents in rat DRG neurons ([…]); effect occluded by ICBM pre-incubation; format: cell-based
T1 construct: gene Adora3; native receptor in isolated rat DRG neurons
T1 sequence (P28647 1-320): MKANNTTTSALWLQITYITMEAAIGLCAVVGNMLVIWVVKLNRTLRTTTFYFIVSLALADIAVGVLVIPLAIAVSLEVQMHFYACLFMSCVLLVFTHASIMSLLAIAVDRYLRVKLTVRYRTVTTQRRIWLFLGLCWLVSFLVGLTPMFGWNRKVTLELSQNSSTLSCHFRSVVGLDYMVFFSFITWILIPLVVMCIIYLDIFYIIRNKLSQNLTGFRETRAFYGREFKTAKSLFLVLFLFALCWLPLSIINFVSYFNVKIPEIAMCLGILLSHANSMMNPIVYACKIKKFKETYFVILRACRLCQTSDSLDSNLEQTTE

[2] = target: T1, adenosine A3 receptor (A3AR); assay: whole-cell patch clamp of Ca2+ currents in rat DRG neurons; washout, MRS1523 block and occlusion of Cl-IB-MECA; format: cell-based

SMILES: CNC(=O)[C@H]1O[C@@H](n2cnc3c(NCc4cccc(I)c4)nc(Cl)nc32)[C@H](O)[C@@H]1O [Cl-IB-MECA, 2-Chloro-N^6-(3-iodobenzyl)-adenosine-5′-N-methyluronamide]
- whole-cell patch clamp of Ca2+ currents in rat DRG neurons (30 nM); effect occlu [1]: the prototypical A3AR agonist, Cl-IB-MECA, significantly decreases ICa (Fig. 2A–B) in these cells

SMILES: CNC(=O)[C@H]1O[C@@H](n2cnc3c(NCc4cccc(N=C=S)c4)ncnc32)[C@H](O)[C@@H]1O [ICBM, N^6-(3-Isothiocyanatobenzyl)-5′-N-methylcarboxamidoadenosine]
- EC50 [2]: 11.7 nM
